Measured values reported in ChEMBL document CHEMBL1140282, “1,4-Benzodiazepine-2,5-diones as small molecule antagonists of the HDM2-p53 interaction: discovery and SAR” (Bioorg Med Chem Lett, 2005).

How the values were obtained:
[1] = biological target: Tumour suppressor p53/oncoprotein Mdm2 (Homo sapiens, UniProt Q00987); assay: Inhibition of p53-binding to HDM2 (human MDM2) by fluorescence polarization peptide displacement assay; format: protein assay
[2] = Dissociation constant was determined; (by measuring difference in protein melting temperature); format: physicochemical

Tumour suppressor p53/oncoprotein Mdm2, sequence (P04637 whole entry): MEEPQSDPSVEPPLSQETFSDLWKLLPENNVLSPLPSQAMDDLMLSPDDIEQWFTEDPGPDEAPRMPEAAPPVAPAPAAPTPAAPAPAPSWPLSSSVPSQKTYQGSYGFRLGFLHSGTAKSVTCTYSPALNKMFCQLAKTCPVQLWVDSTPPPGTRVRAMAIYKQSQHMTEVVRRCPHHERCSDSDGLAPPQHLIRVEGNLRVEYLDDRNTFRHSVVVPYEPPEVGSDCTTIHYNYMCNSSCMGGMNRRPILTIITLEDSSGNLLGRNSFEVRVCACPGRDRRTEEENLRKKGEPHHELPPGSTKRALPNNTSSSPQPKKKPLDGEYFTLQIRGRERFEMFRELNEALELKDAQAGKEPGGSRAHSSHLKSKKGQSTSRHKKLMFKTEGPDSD
Tumour suppressor p53/oncoprotein Mdm2, sequence (Q00987 whole entry): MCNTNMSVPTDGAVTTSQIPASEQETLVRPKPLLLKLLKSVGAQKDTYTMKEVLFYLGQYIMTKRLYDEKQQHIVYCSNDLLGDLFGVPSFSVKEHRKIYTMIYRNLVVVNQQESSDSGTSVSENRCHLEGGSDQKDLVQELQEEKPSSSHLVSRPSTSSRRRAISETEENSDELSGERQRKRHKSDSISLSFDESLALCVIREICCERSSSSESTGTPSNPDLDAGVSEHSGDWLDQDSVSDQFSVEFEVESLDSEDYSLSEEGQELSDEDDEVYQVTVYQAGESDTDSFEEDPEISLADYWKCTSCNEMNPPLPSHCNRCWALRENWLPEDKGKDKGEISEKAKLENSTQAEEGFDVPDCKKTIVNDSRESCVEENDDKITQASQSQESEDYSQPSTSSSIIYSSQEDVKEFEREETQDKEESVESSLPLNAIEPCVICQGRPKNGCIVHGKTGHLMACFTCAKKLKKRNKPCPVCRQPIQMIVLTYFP

| SMILES | IC50 [1] [nM] | Kd [2] [nM] |
| --- | --- | --- |
| O=C(O)[C@H](c1ccc(C(F)(F)F)cc1)N1C(=O)c2cc(I)ccc2NC(=O)[C@@H]1c1ccc(Cl)cc1 | 670 |  |
| O=C(O)[C@H](c1ccccc1)N1C(=O)c2cc(I)ccc2NC(=O)[C@@H]1c1ccccc1 | 38000 |  |
| CC(C)c1ccc([C@@H](C(=O)O)N2C(=O)c3cc(I)ccc3NC(=O)[C@@H]2c2ccc(Cl)cc2)cc1 | 1550 | 83 |
| Cc1ccc([C@H]2C(=O)Nc3ccc(I)cc3C(=O)N2[C@H](C(=O)O)c2ccccc2)cc1 | 13300 |  |
| O=C(O)[C@H](c1ccccc1)N1C(=O)c2cc(I)ccc2NC(=O)[C@@H]1c1cccc(C(F)(F)F)c1 | 45000 |  |
| O=C1Nc2ccc(I)cc2C(=O)N([C@H](C(=O)O)c2ccccc2Cl)[C@H]1c1ccc(Cl)cc1 | 20000 |  |
| O=C(O)[C@H](c1ccc(Cl)nc1)N1C(=O)c2cc(I)ccc2NC(=O)[C@@H]1c1cc2ccccc2[nH]1 | 7900 |  |
| O=C(O)[C@H](c1ccc(Cl)nc1)N1C(=O)c2cc(I)ccc2NC(=O)[C@@H]1c1ccc(Cl)cc1 | 1470 |  |
| O=C(O)[C@H](c1ccc(Cl)cc1)N1C(=O)c2cc(I)ccc2NC[C@@H]1c1ccc(Cl)cc1 | 490 |  |
| CC(C)(C)c1ccc([C@@H](C(=O)O)N2C(=O)c3cc(I)ccc3NC(=O)[C@@H]2c2ccc(Cl)cc2)cc1 | 2270 |  |
| O=C(O)[C@H](c1ccc(Br)cc1)N1C(=O)c2cc(I)ccc2NC(=O)[C@@H]1c1ccc(Cl)cc1 | 620 | 83 |
| O=C(O)[C@H](c1ccc(Cl)cc1)N1C(=O)c2cc(I)ccc2NC(=O)[C@@H]1c1ccc(C(F)(F)F)cc1 | 620 |  |
| CCCC[C@@H](C(=O)O)N1C(=O)c2cc(I)ccc2NC(=O)[C@@H]1c1ccc(Cl)cc1 | 14000 |  |
| O=C(O)[C@H](c1ccc(Cl)nc1)N1C(=O)c2cc(I)ccc2NC(=O)[C@@H]1c1c[nH]c2ccccc12 | 55000 |  |
| O=C(O)[C@H](c1ccccc1)N1C(=O)c2cc(I)ccc2NC(=O)[C@@H]1c1ccc(OC(F)(F)F)cc1 | 1320 |  |
| CC(C)CC[C@@H](C(=O)O)N1C(=O)c2cc(I)ccc2NC(=O)[C@@H]1c1ccc(Cl)cc1 | 12000 |  |
| CCc1ccc([C@H]2C(=O)Nc3ccc(I)cc3C(=O)N2[C@H](C(=O)O)c2ccccc2)cc1 | 7500 |  |
| O=C1Nc2ccc(I)cc2C(=O)N([C@@H](Cc2ccccc2)C(=O)O)[C@H]1c1ccc(Cl)cc1 | 12000 |  |
| O=C(O)[C@H](c1ccccc1)N1C(=O)c2cc(I)ccc2NC(=O)[C@@H]1c1ccc(Cl)cc1 | 2500 |  |
| O=C1Nc2ccc(I)cc2C(=O)N([C@H](C(=O)O)C2CCCCC2)[C@H]1c1ccc(Cl)cc1 | 64000 |  |
| CC(C)c1ccc([C@H]2C(=O)Nc3ccc(I)cc3C(=O)N2[C@H](C(=O)O)c2ccccc2)cc1 | 18000 |  |
| O=C(O)[C@H](c1cccc(Cl)c1)N1C(=O)c2cc(I)ccc2NC(=O)[C@@H]1c1ccc(Cl)cc1 | 2700 |  |
| O=C(O)[C@H](c1ccc(Cl)cc1)N1C(=O)c2cc(I)ccc2NC(=O)[C@@H]1c1ccc(Cl)nc1 | 7400 |  |
| O=C(O)[C@H](c1ccc(Cl)cc1)N1C(=O)c2cc(I)ccc2NC(=O)[C@@H]1c1ccc(OC(F)(F)F)cc1 | 83 | 760 |
| O=C(O)[C@H](c1ccc(Cl)cc1)N1Cc2cc(I)ccc2NC[C@@H]1c1ccc(Cl)cc1 | > 125000 |  |
| O=C(O)[C@H](c1ccccc1)N1C(=O)c2cc(I)ccc2NC(=O)[C@@H]1c1ccccc1C(F)(F)F | > 125000 |  |

Other lines, results leading:

| IC50 [1] [nM] | Kd [2] [nM] | SMILES |
| --- | --- | --- |
| 6300 | 1670 | O=C(O)[C@H](c1ccc(Cl)cc1)N1C(=O)c2ccc(Cl)cc2NC(=O)[C@@H]1c1ccc(Cl)cc1 |
| 2400 |  | O=C(O)[C@H](c1ccc(Cl)cc1)N1C(=O)c2cc(CCO)ccc2NC(=O)[C@@H]1c1ccc(Cl)cc1 |
| 1590 | 167 | Cc1ccc([C@@H](C(=O)O)N2C(=O)c3cc(I)ccc3NC(=O)[C@@H]2c2ccc(Cl)cc2)cc1 |
| 14800 | 7690 | O=C(O)[C@H](c1ccc(Cl)cc1)N1C(=O)c2ccccc2NC(=O)[C@@H]1c1ccc(Cl)cc1 |
| 2270 |  | CC(C)(C)c1ccc2c(c1)C(=O)N([C@H](C(=O)O)c1ccc(Cl)cc1)[C@@H](c1ccc(Cl)cc1)C(=O)N2 |
| 1020 |  | CC(C)c1ccc2c(c1)C(=O)N([C@H](C(=O)O)c1ccc(Cl)cc1)[C@@H](c1ccc(Cl)cc1)C(=O)N2 |
| 1500 |  | CCc1ccc2c(c1)C(=O)N([C@H](C(=O)O)c1ccc(Cl)cc1)[C@@H](c1ccc(Cl)cc1)C(=O)N2 |
| 3300 |  | O=C(O)[C@H](c1ccc(Cl)cc1)N1C(=O)c2cc(CO)ccc2NC(=O)[C@@H]1c1ccc(Cl)cc1 |
| 870 | 250 | C#Cc1ccc2c(c1)C(=O)N([C@H](C(=O)O)c1ccc(Cl)cc1)[C@@H](c1ccc(Cl)cc1)C(=O)N2 |
| 14800 | 10000 | N#Cc1ccc2c(c1)C(=O)N([C@H](C(=O)O)c1ccc(Cl)cc1)[C@@H](c1ccc(Cl)cc1)C(=O)N2 |
| 830 | 1530 | O=C(O)[C@H](c1ccc(Cl)cc1)N1C(=O)c2cc(Cl)ccc2NC(=O)[C@@H]1c1ccc(Cl)cc1 |
| 16500 | 14300 | O=C(O)[C@H](c1ccc(O)cc1)N1C(=O)c2cc(I)ccc2NC(=O)[C@@H]1c1ccc(Cl)cc1 |
| > 125000 |  | CC(=O)Nc1ccc2c(c1)C(=O)N([C@H](C(=O)O)c1ccc(Cl)cc1)[C@@H](c1ccc(Cl)cc1)C(=O)N2 |
| 700 | 167 | O=C(O)[C@H](c1ccc(Cl)cc1)N1C(=O)c2cc(I)c(Cl)cc2NC(=O)[C@@H]1c1ccc(Cl)cc1 |
| 830 | 970 | O=C(O)[C@H](c1ccc(Cl)cc1)N1C(=O)c2cc(Br)ccc2NC(=O)[C@@H]1c1ccc(Cl)cc1 |
